Dmax and DC50 data for 16 compounds are collected here from patent US12559506B2, “Indazole based compounds and associated methods of use” (Arvinas Operations, Inc., priority 2021, dated 2026).

The target of this test is T1, LRRK2 (endogenous, HiBit tagged) (Homo sapiens, UniProt Q5S007).
T1 construct: endogenous in cells; host or cells: HEK293 cells with HiBit knock-in at the endogenous LRRK2 locus, stably expressing firefly luciferase
The test can be described thus: Endogenous LRRK2 degradation assay, endogenous gene C-terminally HiBit-tagged in HEK293 cells (Nano-Glo Dual Luciferase). It counts as cell-based. The gist of the method: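 LRRK2-HiBit quantified via Nano-Glo Dual Luciferase in HEK293 knock-in cells co-expressing firefly luciferase, after 24 h exposure to compound (1 μM final top, 1:3, 11 points). Values normalised to DMSO median per plate and curve-fitted; Alamar Blue viability run alongside.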

Setting [1] is: endogenous HiBit-tagged LRRK2 in HEK293 cells, 24 hours treatment, read-out: **Endogenous WT Dmax (%).
Where [2] appears, read: endogenous HiBit-tagged LRRK2 in HEK293 cells, 24 hours treatment, read-out: *Endogenous WT DC50.
[3] abbreviates: endogenous HiBit-tagged LRRK2 in HEK293 cells, 24 hours treatment, read-out: Endogenous WT DC50.
[4] abbreviates: endogenous HiBit-tagged LRRK2 in HEK293 cells, 24 hours treatment, read-out: Endogenous WT Dmax.
The mark [5] stands for this setting: endogenous HiBit-tagged LRRK2, HEK293 cells, 24 hours, read-out: **Endogenous WT Dmax (%).
The mark [6] stands for this setting: endogenous HiBit-tagged LRRK2, HEK293 cells, 24 hours, read-out: *Endogenous WT DC50.

Like-named read-outs stand apart in the source and are kept apart here.

T1 sequence (Q5S007 whole entry): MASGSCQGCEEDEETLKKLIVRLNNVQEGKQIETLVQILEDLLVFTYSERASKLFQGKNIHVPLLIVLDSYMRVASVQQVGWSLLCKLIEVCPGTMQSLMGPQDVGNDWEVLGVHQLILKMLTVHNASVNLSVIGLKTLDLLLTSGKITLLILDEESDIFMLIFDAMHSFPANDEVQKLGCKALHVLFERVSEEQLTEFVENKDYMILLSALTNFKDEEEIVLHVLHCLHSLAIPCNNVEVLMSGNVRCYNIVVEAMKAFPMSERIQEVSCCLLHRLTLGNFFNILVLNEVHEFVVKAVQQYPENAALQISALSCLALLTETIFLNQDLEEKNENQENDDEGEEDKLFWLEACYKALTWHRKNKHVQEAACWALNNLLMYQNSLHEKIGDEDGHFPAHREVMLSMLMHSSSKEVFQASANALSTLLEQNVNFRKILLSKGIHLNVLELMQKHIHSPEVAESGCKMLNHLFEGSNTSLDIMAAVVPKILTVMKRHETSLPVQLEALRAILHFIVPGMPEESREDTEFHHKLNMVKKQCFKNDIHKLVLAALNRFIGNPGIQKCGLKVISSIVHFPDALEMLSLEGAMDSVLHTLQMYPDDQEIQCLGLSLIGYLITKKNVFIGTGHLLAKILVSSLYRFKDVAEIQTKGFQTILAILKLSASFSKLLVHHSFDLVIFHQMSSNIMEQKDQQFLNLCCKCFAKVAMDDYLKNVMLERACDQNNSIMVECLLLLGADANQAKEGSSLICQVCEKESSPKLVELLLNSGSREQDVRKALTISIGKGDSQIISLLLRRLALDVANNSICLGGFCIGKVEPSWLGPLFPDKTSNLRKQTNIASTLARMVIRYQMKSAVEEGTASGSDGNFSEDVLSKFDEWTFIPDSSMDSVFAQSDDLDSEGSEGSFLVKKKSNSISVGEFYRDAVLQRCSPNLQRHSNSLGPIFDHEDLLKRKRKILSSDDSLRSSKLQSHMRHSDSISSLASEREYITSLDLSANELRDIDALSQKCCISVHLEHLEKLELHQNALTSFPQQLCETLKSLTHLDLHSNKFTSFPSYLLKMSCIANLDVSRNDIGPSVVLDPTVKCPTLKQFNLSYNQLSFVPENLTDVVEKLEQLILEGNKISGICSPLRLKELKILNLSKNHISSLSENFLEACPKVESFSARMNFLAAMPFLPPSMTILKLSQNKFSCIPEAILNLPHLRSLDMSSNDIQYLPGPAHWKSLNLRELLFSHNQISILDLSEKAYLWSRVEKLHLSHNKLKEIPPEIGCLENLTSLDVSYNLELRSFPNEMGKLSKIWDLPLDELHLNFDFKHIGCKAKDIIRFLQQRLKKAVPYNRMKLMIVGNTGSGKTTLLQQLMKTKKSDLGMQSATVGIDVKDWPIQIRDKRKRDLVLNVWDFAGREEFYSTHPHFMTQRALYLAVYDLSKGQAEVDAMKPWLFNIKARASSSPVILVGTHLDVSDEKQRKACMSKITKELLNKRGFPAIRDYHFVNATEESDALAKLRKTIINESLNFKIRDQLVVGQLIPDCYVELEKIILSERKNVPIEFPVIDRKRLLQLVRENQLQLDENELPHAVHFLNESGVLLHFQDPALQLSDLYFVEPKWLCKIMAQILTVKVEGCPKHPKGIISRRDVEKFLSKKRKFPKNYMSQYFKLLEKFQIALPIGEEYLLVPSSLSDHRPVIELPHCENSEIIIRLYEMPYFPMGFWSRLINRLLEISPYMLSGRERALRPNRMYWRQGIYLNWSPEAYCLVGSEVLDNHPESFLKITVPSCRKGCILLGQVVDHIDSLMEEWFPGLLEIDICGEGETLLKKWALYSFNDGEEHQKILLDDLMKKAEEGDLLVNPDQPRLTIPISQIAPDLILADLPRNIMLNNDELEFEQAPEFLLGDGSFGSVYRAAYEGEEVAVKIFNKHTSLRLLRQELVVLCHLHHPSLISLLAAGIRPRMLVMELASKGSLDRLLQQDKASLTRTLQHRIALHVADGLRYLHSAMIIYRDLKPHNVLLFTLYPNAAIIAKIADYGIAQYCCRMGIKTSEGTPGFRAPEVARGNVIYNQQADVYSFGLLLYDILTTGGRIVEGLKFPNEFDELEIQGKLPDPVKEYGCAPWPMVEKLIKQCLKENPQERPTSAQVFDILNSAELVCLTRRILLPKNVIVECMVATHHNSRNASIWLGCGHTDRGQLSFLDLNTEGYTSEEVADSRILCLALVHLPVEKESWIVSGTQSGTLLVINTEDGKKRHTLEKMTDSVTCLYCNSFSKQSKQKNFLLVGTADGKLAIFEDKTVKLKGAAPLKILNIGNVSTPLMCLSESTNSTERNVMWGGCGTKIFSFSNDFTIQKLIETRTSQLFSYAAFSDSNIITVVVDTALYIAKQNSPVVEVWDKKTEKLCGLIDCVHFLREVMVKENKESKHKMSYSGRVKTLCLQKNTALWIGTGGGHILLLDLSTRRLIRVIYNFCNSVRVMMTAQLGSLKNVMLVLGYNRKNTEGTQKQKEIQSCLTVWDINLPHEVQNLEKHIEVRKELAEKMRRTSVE

`C[C@H]1CN(c2cc(-c3[nH]nc4ccc(OC5(C)CC5)cc34)ncn2)CCN1CCN1CCC(C(=O)N2CCN(c3ccc4c(c3)C(=O)N(C3CCC(=O)NC3=O)C4=O)CC2)CC1` (stereo partly drawn) [Compound 58, 2-(2,6-dioxopiperidin-3-yl)-5-[4-(1-{2-[(2S)-2-methyl-4-{6-[5-(1-methylcyclopropoxy)-2H-indazol-3-yl]pyrimidin-4-yl}piperazin-1-yl]ethyl}piperidine-4-carbonyl)piperazin-1-yl]-2,3-dihydro-1H-isoindole-1,3-dione]: the Dmax (endogenous HiBit-tagged LRRK2 in HEK293 cells, 24 hours, read-out: **Endogenous WT Dmax (%)) is 50 to 70%. For the same compound, where the note is “endogenous HiBit-tagged LRRK2 in HEK293 cells, 24 hours, read-out: *Endogenous WT DC50”, the 50% degradation concentration (DC50) is below 10 nM.
As for `COc1c(N2CCC(CN3CCN(C[C@H]4CCN(c5cc(-c6n[nH]c7ccc(OC8(C)CC8)cc67)ncn5)C4)CC3)CC2)ccc2c1CN(C1CCC(=O)NC1=O)C2=O` (stereo partly drawn) [Compound 303, 3-(4-methoxy-5-{4-[(4-{[(3R)-1-{6-[5-(1-methylcyclopropoxy)-1H-indazol-3-yl]pyrimidin-4-yl}pyrrolidin-3-yl]methyl}piperazin-1-yl)methyl]piperidin-1-yl}-1-oxo-2,3-dihydro-1H-isoindol-2-yl)piperidine-2,6-dione], the Dmax under setting [1] lay within 50 to 70%. Further, the DC50 under setting [2] is below 10 nM.
Consider `COc1c(N2CCC(CN3CCN(CC4CCN(c5cc(-c6n[nH]c7cnc(OC8(C)CC8)cc67)ncn5)CC4)C(C)(C)C3)CC2)ccc2c1CN(C1CCC(=O)NC1=O)C2=O` (centres unmarked) [Compound 250, 3-{5-[4-({3,3-dimethyl-4-[(1-{6-[5-(1-methylcyclopropoxy)-1H-pyrazolo[3,4-c]pyridin-3-yl]pyrimidin-4-yl}piperidin-4-yl)methyl]piperazin-1-yl}methyl)piperidin-1-yl]-4-methoxy-1-oxo-2,3-dihydro-1H-isoindol-2-yl}piperidine-2,6-dione], for which the DC50 under setting [3] is below 10 nM. The maximal degradation (Dmax) under setting [4] was 50 to 70%.
`COc1c(N2CCC(CN3CCN(CC4CCN(c5cc(-c6n[nH]c7cnc(OC8(C)CC8)cc67)ncn5)CC4)C(C)(C)C3)CC2)ccc2c1CN(C1CCC(=O)NC1=O)C2=O` (centres unmarked) [Compound 338, 3-{5-[4-({3,3-dimethyl-4-[(1-{6-[5-(1-methylcyclopropoxy)-1H-pyrazolo[3,4-c]pyridin-3-yl]pyrimidin-4-yl}piperidin-4-yl)methyl]piperazin-1-yl}methyl)piperidin-1-yl]-4-methoxy-1-oxo-2,3-dihydro-1H-isoindol-2-yl}piperidine-2,6-dione]: the Dmax under setting [1] fell in the range of 50 to 70%. Moreover, the DC50 under setting [2] is below 10 nM.
In the case of `CC1(Oc2cc3c(-c4cc(N5CCC(O[C@H]6CC[C@H](OC7CCN(c8ccc9c(c8F)CN(C8CCC(=O)NC8=O)C9=O)CC7)CC6)CC5)ncn4)n[nH]c3cc2F)CC1` (some centres unmarked) [Compound 227, 3-[4-fluoro-1-oxo-5-(4-{[(1r,4r)-4-[(1-{6-[6-fluoro-5-(1-methylcyclopropoxy)-1H-indazol-3-yl]pyrimidin-4-yl}piperidin-4-yl)oxy]cyclohexyl]oxy}piperidin-1-yl)-2,3-dihydro-1H-isoindol-2-yl]piperidine-2,6-dione], the DC50 under setting [3] is below 10 nM. Besides, under setting [4], the Dmax was in the range of 50 to 70%.
Turning to `CC1(Oc2cc3c(-c4cc(N5CCC(O[C@H]6CC[C@H](CN7CCN(c8ccc9c(c8F)CN(C8CCC(=O)NC8=O)C9=O)CC7)CC6)CC5)ncn4)n[nH]c3cn2)CC1` (some centres unmarked) [Compound 254, 3-[4-fluoro-1-oxo-5-(4-{[(1r,4r)-4-[(1-{6-[5-(1-methylcyclopropoxy)-1H-pyrazolo[3,4-c]pyridin-3-yl]pyrimidin-4-yl}piperidin-4-yl)oxy]cyclohexyl]methyl}piperazin-1-yl)-2,3-dihydro-1H-isoindol-2-yl]piperidine-2,6-dione], the DC50 under setting [3] was below 10 nM. In addition, the Dmax under setting [4] was 50 to 70%.
For the compound `COc1c(N2CCC(CN3CCN(CC4CCN(c5cc(-c6n[nH]c7cc(F)c(OC8(C)CC8)cc67)ncn5)CC4)CC3(C)C)CC2)ccc2c1CN(C1CCC(=O)NC1=O)C2=O` (centres unmarked) [Compound 279, 3-{5-[4-({4-[(1-{6-[6-fluoro-5-(1-methylcyclopropoxy)-1H-indazol-3-yl]pyrimidin-4-yl}piperidin-4-yl)methyl]-2,2-dimethylpiperazin-1-yl}methyl)piperidin-1-yl]-4-methoxy-1-oxo-2,3-dihydro-1H-isoindol-2-yl}piperidine-2,6-dione], under setting [1], the Dmax was at least 70%. Also, the DC50 under setting [2] is below 10 nM.
For `COc1c(N2CCC(CN3CCN(CC4CCN(c5cc(-c6n[nH]c7cnc(OC8(C)CC8)cc67)ncn5)CC4)CC3)CC2)ccc2c1CN(C1CCC(=O)NC1=O)C2=O` (centres unmarked) [Compound 253, 3-{4-methoxy-5-[4-({4-[(1-{6-[5-(1-methylcyclopropoxy)-1H-pyrazolo[3,4-c]pyridin-3-yl]pyrimidin-4-yl}piperidin-4-yl)methyl]piperazin-1-yl}methyl)piperidin-1-yl]-1-oxo-2,3-dihydro-1H-isoindol-2-yl}piperidine-2,6-dione], under setting [3], the 50% degradation concentration (DC50) was below 10 nM. Under setting [4], the Dmax was in the range of 50 to 70%.
On to `CC1(Oc2ccc3[nH]nc(-c4cc(N5CCC(CN6CCC(F)(CN7CCN(c8ccc9c(c8F)CN(C8CCC(=O)NC8=O)C9=O)CC7)CC6)CC5)ncn4)c3c2)CC1` (centres unmarked) [Compound 190, 3-[4-fluoro-5-[4-[[4-fluoro-1-[[1-[6-[5-(1-methylcyclopropoxy)-1H-indazol-3-yl]pyrimidin-4-yl]-4-piperidyl]methyl]-4-piperidyl]methyl]piperazin-1-yl]-1-oxo-isoindolin-2-yl]piperidine-2,6-dione], for which the maximal degradation (Dmax) under setting [5] was at least 70%. Besides, under setting [6], the DC50 is below 10 nM.
Regarding `CC1(Oc2ccc3n[nH]c(-c4cc(N5CCN(C[C@H]6CC[C@H](OC7CCN(c8cc9c(cc8F)C(=O)N(C8CCC(=O)NC8=O)C9)CC7)CC6)CC5)ncn4)c3c2)CC1` (some centres unmarked) [Compound 235, 3-[6-fluoro-5-[4-[4-[[4-[6-[5-(1-methylcyclopropoxy)-2H-indazol-3-yl]pyrimidin-4-yl]piperazin-1-yl]methyl]cyclohexoxy]-1-piperidyl]-1-oxo-isoindolin-2-yl]piperidine-2,6-dione], the DC50 under setting [3] is below 10 nM. Also, under setting [4], the Dmax was in the range of 50 to 70%.
`CC1(Oc2ccc3n[nH]c(-c4cc(N5CCN(CC6(F)CCN(CC7CCN(c8cc9c(cc8F)C(=O)N(C8CCC(=O)NC8=O)C9)CC7)CC6)CC5)ncn4)c3c2)CC1` (centres unmarked) [Compound 183, 3-[6-fluoro-5-[4-[[4-fluoro-4-[[4-[6-[5-(1-methylcyclopropoxy)-2H-indazol-3-yl]pyrimidin-4-yl]piperazin-1-yl]methyl]-1-piperidyl]methyl]-1-piperidyl]-1-oxo-isoindolin-2-yl]piperidine-2,6-dione]: the maximal degradation (Dmax) under setting [5] is at least 70%. Moreover, the DC50 under setting [6] is below 10 nM.
For `C[C@H]1CN(c2cc(-c3n[nH]c4ccc(OC5(C)CC5)cc34)ncn2)CCN1CC1(F)CCN(CC2CCN(c3ccc4c(c3F)CN(C3CCC(=O)NC3=O)C4=O)CC2)CC1` (stereo partly drawn) [Compound 187, 3-[4-fluoro-5-[4-[[4-fluoro-4-[[(2S)-2-methyl-4-[6-[5-(1-methylcyclopropoxy)-1H-indazol-3-yl]pyrimidin-4-yl]piperazin-1-yl]methyl]-1-piperidyl]methyl]-1-piperidyl]-1-oxo-isoindolin-2-yl]piperidine-2,6-dione] the same measures were at least 70% and below 10 nM.
For `COc1c(N2CC3(CCN(CCC4CCN(c5cc(-c6n[nH]c7ccc(OC8(C)CC8)cc67)ncn5)CC4)CC3(F)F)C2)ccc2c1CN(C1CCC(=O)NC1=O)C2=O` (centres unmarked) [Compound 341, 3-(5-{5,5-difluoro-7-[2-(1-{6-[5-(1-methylcyclopropoxy)-1H-indazol-3-yl]pyrimidin-4-yl}piperidin-4-yl)ethyl]-2,7-diazaspiro[3.5]nonan-2-yl}-4-methoxy-1-oxo-2,3-dihydro-1H-isoindol-2-yl)piperidine-2,6-dione], the greatest degradation seen (Dmax) under setting [1] fell in the range of 50 to 70%. In addition, the DC50 under setting [2] is below 10 nM.
`CC1(Oc2ccc3[nH]nc(-c4cc(N5CCC(CN6CCN(CC7CCN(c8ccc9c(c8)C(=O)N(C8CCC(=O)NC8=O)C9)CC7)CC6)CC5)ncn4)c3c2)CC1` (centres unmarked) [Compound 241, 3-[6-[4-[[4-[[1-[6-[5-(1-methylcyclopropoxy)-1H-indazol-3-yl]pyrimidin-4-yl]-4-piperidyl]methyl]piperazin-1-yl]methyl]-1-piperidyl]-1-oxo-isoindolin-2-yl]piperidine-2,6-dione]: under setting [3], the DC50 is below 10 nM. Also, the Dmax under setting [4] lay in the range of 50 to 70%.
As to `CC1(Oc2cc3c(-c4cc(N5CCC(CN6CCN(CC7CCN(c8ccc9c(c8F)CN(C8CCC(=O)NC8=O)C9=O)CC7)CC6)CC5)ncn4)n[nH]c3cc2F)CC1` (centres unmarked) [Compound 186, 3-[4-fluoro-5-[4-[[4-[[1-[6-[6-fluoro-5-(1-methylcyclopropoxy)-1H-indazol-3-yl]pyrimidin-4-yl]-4-piperidyl]methyl]piperazin-1-yl]methyl]-1-piperidyl]-1-oxo-isoindolin-2-yl]piperidine-2,6-dione], the Dmax under setting [5] was at least 70%. In addition, under setting [6], the DC50 is below 10 nM.
Regarding `COc1c(N2CCC(CN3CCN(CC4CCN(c5cc(-c6n[nH]c7cnc(OC8(C)CC8)cc67)ncn5)CC4)C[C@H]3C)CC2)ccc2c1CN(C1CCC(=O)NC1=O)C2=O` (stereo partly drawn) [Compound 283, 3-[4-methoxy-5-(4-{[(2R)-2-methyl-4-[(1-{6-[5-(1-methylcyclopropoxy)-1H-pyrazolo[3,4-c]pyridin-3-yl]pyrimidin-4-yl}piperidin-4-yl)methyl]piperazin-1-yl]methyl}piperidin-1-yl)-1-oxo-2,3-dihydro-1H-isoindol-2-yl]piperidine-2,6-dione], the Dmax under setting [1] is at least 70%. Also, under setting [2], the 50% degradation concentration (DC50) was below 10 nM.
